According to patent publication US11369593B2 (Texas Tech University System, priority 2017, dated 2022):

Test system: PC12 cells
Assay: Etoposide-induced apoptosis in PC12 cells, cell viability
Assay type: cell-based
Conditions: Rattus norvegicus, PC-12, etoposide-induced apoptosis, PC12 cells; for viability at 0.1 µM: 0.1 μM compound, vehicle 52.1 ± 7.32; for viability at 0.3 µM: 0.3 μM compound; for viability at 1 µM: 1 μM compound, read-out: % Viability 1 μM; for viability at 3 µM: 3 μM compound, read-out: % Viability 3 μM; for viability at 10 µM: 10 μM compound, read-out: % Viability 10 μM; for viability at 30 µM: 30 μM compound, read-out: % Viability 30 μM

| Structure (SMILES) | viability at 0.1 µM | viability at 0.3 µM | viability at 1 µM | viability at 3 µM | viability at 10 µM | viability at 30 µM |
| --- | --- | --- | --- | --- | --- | --- |
| CCOC(=O)Nc1ccc(NCc2ccccc2)nc1N [AM-2-3, Ethyl (2-amino-6-(benzylamino)pyridin-3-yl)carbamate] | 83.2 ± 21.9% | 87.5 ± 1.65% | 93.5 ± 5.31% | 78.6 ± 10.8% | 92.2 ± 3.97% | 88.8 ± 5.02% |
| CCOC(=O)Nc1ccc(NCc2ccc(OC)cc2)nc1N [AM-4-3, Ethyl (2-amino-6-((4-methoxybenzyl)amino)pyridin-3-yl)carbamate] | 86.8 ± 3.14% | 81.4 ± 13% | 71.8 ± 25.7% | 79.7 ± 10.6% | 90 ± 16.3% | 106 ± 13.3% |
| CCOC(=O)Nc1ccc(NCc2ccc3ccccc3c2)nc1N [AM-5-3, Ethyl (2-amino-6-((naphthalen-2-ylmethyl)amino)pyridin-3-yl)carbamate] | 70.5 ± 24.2% | 76.9 ± 20.8% | 81.7 ± 12.6% | 57.6 ± 6.35% | 65.1 ± 22.6% | 103 ± 1.31% |
| CCOC(=O)Nc1ccc(NCc2ccc(SC(F)(F)F)cc2)nc1N [AM-8-3, Ethyl (2-amino-6-((4-((trifluoromethyl)thio)benzyl)amino)pyridin-3-yl)carbamate] | 69 ± 9.99% | 92.6 ± 9.23% | 82.3 ± 7.02% | 79.2 ± 23.6% | 89.1 ± 2.16% | 110 ± 15.3% |
| CCOC(=O)Nc1ccc(NCc2ccc(-c3cccs3)cc2)nc1N [AM-11-3, Ethyl (2-amino-6-((4-(thiophen-2-yl)benzyl)amino)pyridin-3-yl)carbamate] | 64.1 ± 16.6% | 77.1 ± 25.2% | 89.8 ± 30.1% | 76.1 ± 12.8% | 89 ± 29.1% | 35.3 ± 5.69% |
| CCOC(=O)Nc1ccc(NCc2ccc(C(F)(F)F)cc2)nc1 [AM-15-3, Ethyl (6-((4-(trifluoromethyl)benzyl)amino)pyridin-3-yl)carbamate] | 59.7 ± 6.74% | 54.1 ± 12.7% | 59 ± 12.9% | 64 ± 7.87% | 66.4 ± 4.11% | 52.9 ± 8.69% |
| CCOC(=O)Nc1ccc(NCc2ccc(OC(F)(F)F)cc2)nc1N [JG-33-4, Ethyl (2-amino-6-((4-(trifluoromethoxy)benzyl)amino)pyridin-3-yl)carbamate] | 71.3 ± 16.1% | 81.6 ± 10.9% | 79.8 ± 12.8% | 95.3 ± 14.6% | 88.9 ± 12.6% | 82.4 ± 12.6% |
| CCOC(=O)Nc1ccc(NCc2ccccc2C(F)(F)F)nc1N [JG-34-4, Ethyl (2-amino-6-((2-(trifluoromethyl)benzyl)amino)pyridin-3-yl)carbamate] | 74.6 ± 2.18% | 72.4 ± 16.4% | 95.1 ± 10.3% | 91.5 ± 12.9% | 95.4 ± 19.3% | 77.7 ± 6.86% |
| Nc1nc(NCc2ccccc2C(F)(F)F)ccc1NC(=O)OCC(Cl)(Cl)Cl [JG-35-4, 2,2,2-trichloroethyl (2-amino-6-((2-(trifluoromethyl)benzyl)amino)pyridin-3-yl)carbamate] | – | – | 92.2 ± 37.2% | 108 ± 7.32% | 93.2 ± 21.6% | 71.6 ± 20.8% |
| CCOC(=O)Nc1ccc(NCCc2ccccc2)nc1N [JG-36-4, Ethyl (2-amino-6-(phenethylamino)pyridin-3-yl)carbamate] | 52.1 ± 11.5% | 56.9 ± 12% | 69.2 ± 7.1% | 50 ± 9.09% | 59.6 ± 9.05% | 60.5 ± 5.82% |
| CCOC(=O)Nc1ccc(NCc2cc(F)cc(C(F)(F)F)c2)nc1N [JG-38-4, Ethyl (2-amino-6-((3-fluoro-5-(trifluoromethyl)benzyl)amino)pyridin-3-yl)carbamate] | 69 ± 13.6% | 64.7 ± 12.5% | 69.7 ± 14.9% | 72.9 ± 13.2% | 90.1 ± 15.1% | 78.2 ± 12.5% |
| CCOC(=O)Nc1ccc(N2CCOCC2)nc1N [JG-41-4, Ethyl (2-amino-6-morpholinopyridin-3-yl)carbamate] | – | – | 85.8 ± 15.5% | 88.7 ± 13.5% | 78.9 ± 14.3% | 63.9 ± 12.4% |
| Cc1ccc(OC(=O)Nc2ccc(NCc3ccc(F)cc3)cc2N)cc1 [JG-48-6, p-tolyl (2-amino-4-((4-fluorobenzyl)amino)phenyl)carbamate] | – | – | 70 ± 16.1% | 91.6 ± 11% | 83.7 ± 2.26% | 67.5 ± 10.2% |
| CC(C)(C)OC(=O)Nc1ccc(NCc2ccc(F)cc2)nc1N [NK-13-1, tert-butyl 6-(4-fluorobenzylamino)-2-aminopyridin-3-ylcarbamate] | 53.5 ± 9.17% | 47.6 ± 3.19% | 57.2 ± 13.6% | 42.2 ± 6.03% | 68.1 ± 21.6% | 64.4 ± 12.8% |
| CCOC(=O)Nc1ccc(NCc2ccc(F)cc2)nc1 [NK-31-3] | – | – | 109 ± 35.9% | 110 ± 19.4% | 101 ± 15.9% | 69.3 ± 14.9% |
| CCCCCCOC(=O)Nc1ccc(NCc2ccc(F)cc2)cc1N [NK-34-2, Hexyl (2-amino-4-((4-fluorobenzyl)amino)phenyl)carbamate] | 63 ± 11.8% | 61 ± 5.7% | 65.8 ± 6.14% | 60.1 ± 11.4% | 72.1 ± 13.4% | 73.2 ± 4.74% |
| Nc1nc(NCc2ccc(F)cc2)ccc1NC(=O)Oc1ccccc1 [NK-41-1, Phenyl (2-amino-6-((4-fluorobenzyl)amino)pyridin-3-yl)carbamate] | 57.5 ± 3.62% | 53.4 ± 0.8% | 58.1 ± 2.08% | 59 ± 6.87% | 68.9 ± 7.71% | 70.3 ± 10.6% |
| Nc1nc(NCc2ccc(F)cc2)ccc1NC(=O)OCC1c2ccccc2-c2ccccc21 [NK-43-1, (9H-fluoren-9-yl)methyl (2-amino-6-((4-fluorobenzyl)amino)pyridin-3-yl)carbamate] | 67.5 ± 6.34% | 63.9 ± 6.2% | 69 ± 10.3% | 56.4 ± 8.99% | 66.7 ± 5.97% | 49.7 ± 1.76% |
| C#CCOC(=O)Nc1ccc(NCc2ccc(F)cc2)nc1N [NK-45-1, Prop-2-yn-1-yl (2-amino-6-((4-fluorobenzyl)amino)pyridin-3-yl)carbamate] | 60.4 ± 1.29% | 57.5 ± 3.95% | 64.9 ± 11.7% | 61.9 ± 9.82% | 65.4 ± 10.7% | 64.8 ± 3.9% |
| Nc1nc(NCc2ccc(F)cc2)ccc1NC(=O)OCC(Cl)(Cl)Cl [NK-46-1, 2,2,2-trichloroethyl (2-amino-6-((4-fluorobenzyl)amino)pyridin-3-yl)carbamate] | 74.1 ± 9.21% | 108 ± 12.7% | 94.9 ± 8.18% | 77.2 ± 8.19% | 83.9 ± 18% | 113 ± 3.53% |
| CCOC(=O)Nc1ccc(NC(C)c2ccccc2)nc1N (stereo not shown) [NK-52-3, Ethyl (2-amino-6-((1-phenylethyl)amino)pyridin-3-yl)carbamate] | 50 ± 1.04% | 56 ± 4.21% | 56.7 ± 5.69% | 66.2 ± 4.77% | 53.2 ± 2.3% | 24 ± 6.78% |
| CCOC(=O)Nc1ccc(NCc2ccc(-c3ccccc3)cc2)nc1N [NK-57-3, Ethyl (6-(([1,1′-biphenyl]-4-ylmethyl)amino)-2-aminopyridin-3-yl)carbamate] | 55.4 ± 14.8% | 61.7 ± 12.7% | 63.7 ± 10.1% | 48.9 ± 9.58% | 53.1 ± 14% | 62.3 ± 10.3% |
| CCOC(=O)Nc1ccc(OCc2ccc(C(F)(F)F)cc2)nc1N [NK-60-3, Ethyl (2-amino-6-((4-(trifluoromethyl)benzyl)oxy)pyridin-3-yl)carbamate] | 64 ± 11% | 83.8 ± 11.5% | 77.1 ± 7.31% | 69.9 ± 8.54% | 71.4 ± 19.6% | 77 ± 6.87% |
| CCOC(=O)Nc1ccc(NCc2ccc(F)cc2F)nc1N [NK-64-3, Ethyl (2-amino-6-((2,4-difluorobenzyl)amino)pyridin-3-yl)carbamate] | 84 ± 21.9% | 93 ± 14.1% | 91 ± 19.8% | 78 ± 16.8% | 89.2 ± 4.4% | 90.7 ± 12.7% |
| CCOC(=O)Nc1ccc(NCc2ccc(C)cc2C)nc1N [NK-65-3, Ethyl (2-amino-6-((2,4-dimethylbenzyl)amino)pyridin-3-yl)carbamate] | 55.5 ± 11.3% | 56.9 ± 18.4% | 61.8 ± 9.82% | 87.9 ± 11.4% | 85.7 ± 13.2% | 65.7 ± 19% |
| CCOC(=O)Nc1ccc(NCc2cccc(C)c2)nc1N [NK-66-3, Ethyl (2-amino-6-((3-methylbenzyl)amino)pyridin-3-yl)carbamate] | 94.7 ± 25.8% | 110 ± 11.3% | 101 ± 17.4% | 82.3 ± 31.4% | 86.1 ± 26.9% | 107 ± 9.4% |
| CCOC(=O)Nc1ccc(NCc2cccc(OC)c2)nc1N [NK-67-3, Ethyl (2-amino-6-((3-methoxybenzyl)amino)pyridin-3-yl)carbamate] | 59.2 ± 3.98% | 48.6 ± 9.49% | 82.8 ± 19.8% | 87.5 ± 15% | 70.1 ± 3.36% | 63.8 ± 14% |
